Experimental data published in patent publication US20240115574A1, “INHIBITION OF nSMase FOR THE TREATMENT OF HUMAN IMMUNODEFICIENCY VIRUS INFECTION” (The Johns Hopkins University, priority 2018, published 2024).
Read-outs that look alike come from different tables or passages of the source.

Tests used:
nSMase2 = nSMase2 (Homo sapiens (Human), UniProt Q9NY59); experiment: nSMase2 inhibition (Tables 1A, 1B); type: biochemical
HIV Rf in H9 cells = experiment: HIV replication in HIV-infected H9 cells, P24 ELISA of culture supernatants; type: cell-based; settings: H9 cells infected with HIV, dose response
Protocol: Controls included no-treatment and vehicle. Cell viability and P24 were measured every 24 h for 4 days.

HIV1-Ada = experiment: HIV-infected humanized mice (hu-NSG), viral load and cell populations; type: in vivo
Protocol: Humanization of NSG mice was determined 20 weeks following transplantation by flow cytometry (Miltenyl Biotec) using human specific antibodies directed against hCD45-APC (Leukocytes; Thermo Fisher), hCD3-PE (T cells; Biolegend), hCD14-PE/Cy7 (Macrophage; Biolegend), hCD19-BV421 (B cells; Biolegend). Percent humanization was calculated as a ratio for each of the human antibodies to a mouse specific antibody directed against mCD45-FITC (eBioscience). Mice>5% humanization (in each cell category) were included for experiments.
Reaction included a non-template control, non-enzyme control and sample was analyzed on an Applied Biosystem 7300 Real-Time PCR system (Life Technology). […] The dissociation stage was 95° C. for 15 sec, 60° C. for 1 min and 95° C. for 15 sec.
Drugs were reconstituted in 5% DMSO, 5% Tween-80 and 90% saline. Control mice injected with vehicle consisting of 5% DMSO, 5% Tween-80 in saline.

HIV in U1 cells = experiment: HIV replication (p24) in TNF-α-stimulated U1 cells; type: cell-based; settings: TNF-α 500 ng/mL, 0.1 μM-10 μM, 12 h, 24 h, 48 h
Protocol: (§1) Quantification of HIV replication (p24 levels) in medium (top) and cell viability (bottom) of H9 cells (FIG. 4A), U1 cells (FIG. 4B), and human primary CD4+ cells (FIG. 4C) treated with nSMase2 inhibitor, MS882 (31). […] HIV replication and cell viability were measured at 12 h, 24 h, and 48 h after treatment of MS882 (31). Data are mean±S.D of n=3 per independent experiments/condition. *=p<0.05; **=p<0.01; ***=p<0.001 compared to uninfected control (H9 cells, primary human CD4+ cells), or non-TNFα-induced control (U1 cells). #=p<0.05; ##=p<0.01; ###=p<0.001 compared to HIV-infected or TNF-α-induced cells. One-Way ANOVA with Tukey post-hoc comparisons;

[1] = test system: HIV-MN in primary human CD4+ cells; experiment: HIV replication (p24) in human primary CD4+ cells; type: cell-based; settings: HIV-MN 200 ng/mL, 0.1 μM-10 μM, 12 h, 24 h, 48 h
Protocol: as §1

H9 cells and U1 cells = experiment: Electron microscopy of HIV-infected H9 cells and TNF-α-stimulated U1 cells; type: cell-based; settings: 10 μM for 6 h
Protocol: Representative electron microscope images of H9 cells (FIG. 6A) and U1 cells (FIG. 6B) treated with MS882 (31) (10 μM) for 6 h following HIV infection (H9 cells) or TNF-α stimulation (U1 cells). […] Scale bar, 1 μm;

ceramides = experiment: Plasma ceramides in HIV-infected humanized mice; type: in vivo; settings: 10 mg/Kg for 6 weeks
Protocol: Quantifications of multiple ceramides in plasma from uninfected humanized mice, HIV-infected humanized mice administered MS882 (31) (10 mg/Kg) or vehicle for 6 weeks. Data are mean±S.D of n=4-6 per group. *=p<0.05; **=p<0.01; ***=p<0.001 compared to uninfected humanized mice #=p<0.05; ##=p<0.01 compared to HIV-infected mice administered vehicle. One-Way ANOVA with Tukey post-hoc comparisons; Experimental drugs were delivered intraperitoneally at a dose of 10 mg/kg once daily beginning 5 weeks after HIV infection for a duration of 6 weeks. Drugs were reconstituted in 5% DMSO, 5% Tween-80 and 90% saline. Control mice injected with vehicle consisting of 5% DMSO, 5% Tween-80 in saline.

[2] = test system: HIV-1 Tat-regulated firefly luciferase reporter in TZM/Bl cells; settings: dose response
[3] = nSMase2 inhibitors of formula (I), Table 1A, read-out: IC50
[4] = nSMase2, compounds of formula (II), Table 1B, read-out: Activity* (IC50 category)
[5] = daily administration for 6 weeks

Sequence of nSMase2 (Q9NY59 whole entry, species assumed): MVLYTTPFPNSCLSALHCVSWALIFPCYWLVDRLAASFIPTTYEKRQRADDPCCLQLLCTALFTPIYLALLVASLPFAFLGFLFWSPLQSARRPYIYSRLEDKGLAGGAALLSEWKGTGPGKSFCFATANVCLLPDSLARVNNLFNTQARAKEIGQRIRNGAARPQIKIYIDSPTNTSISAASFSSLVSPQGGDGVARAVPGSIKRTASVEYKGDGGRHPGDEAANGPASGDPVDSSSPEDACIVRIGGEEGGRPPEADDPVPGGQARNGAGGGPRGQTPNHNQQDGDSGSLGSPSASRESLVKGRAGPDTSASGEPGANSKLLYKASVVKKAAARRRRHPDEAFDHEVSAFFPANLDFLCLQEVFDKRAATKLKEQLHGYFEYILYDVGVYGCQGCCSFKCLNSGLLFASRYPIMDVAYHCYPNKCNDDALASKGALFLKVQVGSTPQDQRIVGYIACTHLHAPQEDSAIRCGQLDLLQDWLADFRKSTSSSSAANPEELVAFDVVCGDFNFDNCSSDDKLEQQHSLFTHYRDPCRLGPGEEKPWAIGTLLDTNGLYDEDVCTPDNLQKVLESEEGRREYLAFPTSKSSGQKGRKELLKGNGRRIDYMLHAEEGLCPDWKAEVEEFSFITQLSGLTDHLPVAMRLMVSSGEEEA

| Structure (SMILES) | IC50 (nSMase2; [3]) | IC50 (nSMase2; [4]) | also measured |
| --- | --- | --- | --- |
| CC(=O)N[C@@H]1CCN(c2cc(Cl)nn3cc(C)nc23)C1 [9-PROV] | > 100 µM | – | – |
| COc1ccc(-c2c(C)nc3c(N4CC[C@@H](NC(C)=O)C4)cc(Cl)nn23)cc1 [11-PROV] | > 100 µM | – | – |
| COc1cccc(-c2c(C)nc3c(N4CC[C@@H](NC(C)=O)C4)cc(Cl)nn23)c1 [14-PROV] | > 100 µM | – | – |
| CC(=O)N[C@@H]1CCN(c2ccnn3cc(C)nc23)C1 [15-PROV] | > 10 µM | – | – |
| CC(=O)N[C@@H]1CCN(c2cc(Cl)nn3c(-c4ccc(F)cc4)c(C)nc23)C1 [18-PROV] | > 100 µM | – | – |
| CC(=O)Nc1cccc(-c2c(C)nc3c(N4CC[C@@H](NC(C)=O)C4)cc(Cl)nn23)c1 [19-PROV] | > 100 µM | – | – |
| COc1cccc(-c2c(C)nc3c(N4CC[C@@H](NC(C)=O)C4)cc(C)nn23)c1 [20-PROV] | > 1 µM | – | – |
| CC(=O)Nc1cccc(-c2c(C)nc3c(N4CC[C@@H](NC(C)=O)C4)cc(C)nn23)c1 [22-PROV] | > 1 µM | – | – |
| CC(=O)N[C@@H]1CCN(c2cc(C)nn3c(I)c(C)nc23)C1 [23-PROV] | > 10 µM | – | – |
| COc1ccc(-c2c(C)nc3c(N4CC[C@@H](NC(=O)C5CCCCC5)C4)cc(C)nn23)cc1 [Entry 31] | – | – | HIV replication (P24 ELISA of culture supernatants) (HIV Rf in H9 cells; listed as MS822 (31)): dose-dependently reduced HIV replication; HIV replication (P24 ELISA of culture supernatants) (HIV Rf in H9 cells; listed as MS882 (31)): suppressed HIV-replication; populations of human CD14+ macrophages (HIV1-Ada; 10 mg/kg daily I.P. for 6 weeks): selectively decreased populations of CD14+ macrophages; HIV RNAs in tissues (spleen, lung, liver, brain), qRT-PCR for HIV1-p24 (HIV1-Ada; [5]): decreased; HIV+ (p24+) macrophages (hCD14+) in spleen, lung, liver, brain (HIV1-Ada; [5]): decreased; plasma HIV viral load (HIV1-Ada; daily intraperitoneal administration, HIV-infected humanized mice): reduced plasma HIV viral load; mice with plasma HIV viral load reduced to below detectable levels (HIV1-Ada; daily intraperitoneal administration, individual mice): 3 out of 5; HIV replication (p24 levels in medium) (HIV in U1 cells): suppressed HIV-replication; HIV replication (p24 levels in medium) [1]: suppressed HIV-replication; endolysosomal morphology (electron microscopy) (H9 cells and U1 cells): induced enlarged endolysosomal compartments engorged with EM-dense debris; multiple ceramides in plasma (ceramides): decreased elevations of multiple ceramides; luciferase activity in TZM/B1 cells [2]: reduced luciferase activity in TZM/B1 cells at the highest doses tested |

Continued, in another order:

| IC50 (nSMase2; [3]) | IC50 (nSMase2; [4]) | Structure (SMILES) | also measured |
| --- | --- | --- | --- |
| – | > 100 µM | COc1ccc(-c2csc3c(N4CC[C@@H](NC(C)=O)C4)nc(Cl)nc23)cc1OC [24-PROV] | – |
| – | > 100 µM | COc1ccc(-c2c(C)sc3c(N4CC[C@@H](NC(C)=O)C4)nc(Cl)nc23)cc1OC [25-PROV] | – |
| – | > 100 µM | COc1ccc(-c2scc3c(N4CC[C@@H](NC(C)=O)C4)nc(Cl)nc23)cc1OC [26-PROV] | – |
| – | > 100 µM | COc1ccc(-c2csc3c(N4CC[C@@H](NC(C)=O)C4)ncnc23)cc1OC [27-PROV] | – |
| – | > 100 µM | COc1ccc(-c2c(C)sc3c(N4CC[C@@H](NC(C)=O)C4)ncnc23)cc1OC [28-PROV] | – |
| – | > 100 µM | COc1ccc(-c2c(C)sc3c(N4CC[C@@H](NC(C)=O)C4)nc(C)nc23)cc1OC [29a-PROV] | – |
| – | > 100 µM | COc1ccc(-c2scc3c(N4CC[C@@H](NC(C)=O)C4)nc(C)nc23)cc1OC [29b-PROV] | – |
| – | > 100 µM | COc1ccc(-c2csc3c(N4CC[C@@H](NC(C)=O)C4)nc(C)nc23)cc1OC [30-PROV] | – |
| > 1 µM | – | COc1cc(N2CC[C@@H](NC(C)=O)C2)c2nc(C)c(-c3ccc(OC)c(OC)c3)n2n1 [38-PROV] | – |
| ≤ 1 µM | – | CC(=O)N[C@@H]1CCN(c2cc(C)nn3c(-c4ccc5c(c4)OCO5)c(C)nc23)C1 [40-PROV] | – |
| > 1 µM | – | CC(=O)N[C@@H]1CCN(c2cc(C)nn3c(-c4cccc(S(C)(=O)=O)c4)c(C)nc23)C1 [42-PROV] | – |
| ≤ 1 µM | – | CC(=O)N[C@@H]1CCN(c2cc(C)nn3c(-c4ccc(O)cc4)c(C)nc23)C1 [47-PROV] | – |
| > 1 µM | – | CC(=O)N[C@@H]1CCN(c2cc(C)nn3c(C)c(C)nc23)C1 [48-PROV] | – |
